The supplement of paper PMC10307832

Columns and labels:
Experiment in all cases: relative viability (nuclei count vs DMSO), 5 days (fraction); higher = more cells survive
Docetaxel = compound: CC(=O)O[C@@]12CO[C@@H]1C[C@H](O)[C@@]1(C)C(=O)[C@H](O)C3=C(C)[C@@H](OC(=O)[C@H](O)[C@@H](NC(=O)OC(C)(C)C)c4ccccc4)C[C@@](O)([C@@H](OC(=O)c4ccccc4)[C@H]21)C3(C)C [Docetaxel]
Procedure, shortened: (§1)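 Viability was defined as treated-well nuclei divided by vehicle-well nuclei, with the median taken over replicate plates. Cells from lung cancer lines sat overnight at 37 °C in 1536-well plates, received five √10-spaced library-drug doses by pinning on vehicle-anchored plates, and grew 5 days without medium change before one-step fixation, permeabilisation and Hoechst staining, 4× imaging and MetaXpress nuclear counts. Only plates with control CV under 25% and at least one doubling were kept.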

Tivozanib = compound: COc1cc2nccc(Oc3ccc(NC(=O)Nc4cc(C)on4)c(Cl)c3)c2cc1OC [Tivozanib]
Procedure, shortened: as §1

[1] = compound: Cc1cnc(-c2cnc(NCCNc3ccc(C#N)cn3)nc2-c2ccc(Cl)cc2Cl)[nH]1
Procedure, shortened: as §1

JQ1 = compound: Cc1sc2c(c1C)C(c1ccc(Cl)cc1)=N[C@@H](CC(=O)OC(C)(C)C)c1nnc(C)n1-2 [JQ1]
Procedure, shortened: as §1

Cytarabine = compound: Nc1ccn([C@@H]2O[C@H](CO)[C@@H](O)[C@@H]2O)c(=O)n1 [Cytarabine]
Procedure, shortened: as §1

CPI-613 = compound: O=C(O)CCCCC(CCSCc1ccccc1)SCc1ccccc1 [CPI-613]
Procedure, shortened: as §1

Pimozide = compound: O=c1[nH]c2ccccc2n1C1CCN(CCCC(c2ccc(F)cc2)c2ccc(F)cc2)CC1 [Pimozide]
Procedure, shortened: as §1

Cell Line | relative viability (Docetaxel; 0.0002 µM) | relative viability (Docetaxel; 0.000632 µM) | relative viability (Docetaxel; 0.002 µM) | relative viability (Docetaxel; 0.006325 µM) | relative viability (Docetaxel; 0.02 µM) | relative viability (Tivozanib; 0.005 µM) | relative viability (Tivozanib; 0.01581 µM) | relative viability (Tivozanib; 0.05 µM) | relative viability (Tivozanib; 0.1581 µM) | relative viability (Tivozanib; 0.5 µM) | relative viability ([1]; 0.08 µM) | relative viability ([1]; 0.8 µM) | relative viability ([1]; 2.53 µM) | relative viability (JQ1; 0.04 µM) | relative viability (JQ1; 0.1265 µM) | relative viability (JQ1; 0.4 µM) | relative viability (JQ1; 1.265 µM) | relative viability (JQ1; 4 µM) | relative viability (Cytarabine; 0.005 µM) | relative viability (Cytarabine; 0.01581 µM) | relative viability (Cytarabine; 0.05 µM) | relative viability (Cytarabine; 0.1581 µM) | relative viability (Cytarabine; 0.5 µM) | relative viability (CPI-613; 5 µM) | relative viability (CPI-613; 15.81 µM) | relative viability (CPI-613; 50 µM) | relative viability (CPI-613; 158.11 µM) | relative viability (CPI-613; 500 µM) | relative viability (Pimozide; 0.08 µM) | relative viability (Pimozide; 0.253 µM) | relative viability (Pimozide; 0.8 µM) | relative viability (Pimozide; 2.53 µM) | relative viability (Pimozide; 8 µM) | relative viability ([1]; 0.253 µM)
NCI-H3122 | 0.981 | 0.839 | 0.731 | 0.184 | 0.12 | 0.961 | 1.03 | 1.01 | 1.12 | 1.02 | 0.962 | 0.988 | 0.965 | 0.962 | 0.791 | 0.96 | 0.857 | 0.518 | 0.99 | 0.928 | 0.971 | 0.553 | 0.399 | 0.969 | 1.01 | 1.02 | 0.956 | 0.146 | 0.983 | 1.02 | 0.948 | 0.962 | 1.03 | –
PC-3 [JPC-3] | 0.98 | 1.01 | 0.585 | 0.344 | 0.188 | 1.03 | 1.05 | 1.06 | 1.05 | 0.912 | 1 | 1.04 | 1.03 | 0.999 | 0.997 | 0.762 | 0.675 | 0.606 | 0.945 | 0.971 | 0.773 | 0.618 | 0.631 | 1.01 | 0.952 | 1.01 | 0.789 | 0.358 | – | 0.984 | 0.945 | 1.01 | 0.894 | 0.909
PC-14 | 0.941 | 0.742 | 0.209 | 0.081 | 0.0432 | 0.924 | 1.05 | 1.06 | 1.03 | 0.927 | 1.07 | 1.04 | 0.867 | 0.971 | 0.684 | 0.652 | 0.333 | 0.22 | 0.881 | 0.922 | 0.565 | 0.174 | 0.127 | 0.956 | 0.9 | 0.941 | 0.685 | 0.595 | – | 0.965 | 0.851 | 0.915 | 0.987 | 0.861
RERF-LC-KJ | 0.94 | 0.79 | 0.335 | 0.218 | 0.173 | 0.951 | 0.939 | 1.06 | 0.935 | 0.969 | 1.1 | 0.89 | 1 | 0.985 | 1.01 | 0.967 | 0.624 | 0.423 | 0.869 | 0.907 | 0.77 | 0.567 | 0.435 | 0.978 | 0.883 | 1.02 | 0.891 | 0.865 | 0.959 | 0.887 | 0.867 | 0.869 | 0.792 | 0.906
SK-LU-1 | 0.843 | 0.64 | 0.425 | 0.329 | 0.255 | 1 | 1.02 | 1.12 | 0.928 | 1.05 | 1.12 | 1.06 | 1.14 | 1 | 0.91 | 0.91 | 0.377 | 0.238 | 0.853 | 0.868 | 0.776 | 0.433 | 0.322 | 1.04 | 0.911 | 0.995 | 0.668 | 0.473 | 1.02 | 1.03 | 0.986 | 0.876 | 0.858 | 0.967
